From patent US20250072422A1, “ARYLCYCLOHEXANEDIONE DERIVATIVE OR SALT THEREOF, PEST CONTROL AGENT CONTAINING SAID COMPOUND, AND METHOD FOR USING SAME” (ADEKA Corporation, priority 2021, published 2025)

Experiments:
[1] = system: Frankliniella occidentalis; assay: Insecticidal test against Frankliniella occidentalis; conditions: 500 ppm drug solution sprayed on hatched larvae on Phaseolus vulgaris leaf pieces, four days after treatment
Text: Female adults of Frankliniella occidentalis were inoculated onto Phaseolus vulgaris leaf pieces, and after allowing them to lay eggs for one day, the female adults were removed. […] Four days after the treatment, the number of surviving larvae of this species was examined. […] In duplicate.

[2] = system: Plutella xylostella; assay: Insecticidal test against Plutella xylostella; conditions: 500 ppm drug solution, Chinese cabbage seedlings with eggs immersed about 30 sec, six days after immersion, 25° C.
Text: Six days after the immersion in the drug solution, the number of surviving insects was examined. […] In triplicate using 10 per plot.

[3] = system: Dirofilaria immitis; assay: Influence evaluation test on the growth of Dirofilaria immitis; format: cell-based; conditions: 168 h, read-out: development inhibition rate from the L3 stage larva to the L4-stage larva
[4] = system: Laodelphax striatellus; assay: Insecticidal test against Laodelphax striatellus; conditions: 500 ppm drug solution, rice seedlings immersed 30 seconds, three-instar insects, eight days after inoculation

SMILES	corrected mortality, rating of assessment [2]	further results
CC1C(=O)C(C(=O)Nc2ccc(C(F)(F)F)cc2)=C(O)CC1c1ccc(C(F)(F)F)cc1 (stereo not drawn) [1-2]	–	corrected mortality, rating of assessment [1]: D or higher
CC1C(=O)C(C(=O)Nc2ccc(F)cc2)=C(O)CC1(C)c1ccc(C(F)(F)F)cc1 (stereo not drawn) [1-3]	D or higher	–
C#CCC1C(=O)C(C(=O)Nc2ccc(F)cc2)=C(O)CC1c1ccc(C(F)(F)F)cc1 (stereo not drawn) [1-7, N-(4-fluorophenyl)-5-hydroxy-3-oxo-2-(prop-2-yn-1-yl)-4′-(trifluoromethyl)-1,2,3,6-tetrahydro-[1,1′-biphenyl]-4-carboxamide]	D or higher	inhibition at 10 µM [3]: ≥ 50%
CC1(C)C(=O)C(C(=O)Nc2ccc(F)c(F)c2)=C(O)CC1c1ccc(C(F)(F)F)cc1 (stereo not drawn) [1-10]	–	corrected mortality, rating of assessment [1]: D or higher
C#CCC1C(=O)C(C(=S)Nc2ccc(F)cc2)=C(O)CC1c1ccc(C(F)(F)F)cc1 (stereo not drawn) [1-18]	D or higher	–
CC1(C)C(=O)C(C(=S)Nc2ccc(F)cc2)=C(O)CC1c1ccc(C(F)(F)F)cc1 (stereo not drawn) [1-20]	D or higher	–
CC1(C)C(=O)C(C(=S)Nc2ccc(OC(F)(F)F)cc2)=C(O)CC1c1ccc(C(F)(F)F)cc1 (stereo not drawn) [1-22]	D or higher	–
O=C(Nc1ccc(F)cc1)C1=C(O)CC(c2ccc(C(F)(F)F)cc2)C2(CCCC2)C1=O (stereo not drawn) [1-28]	D or higher	corrected mortality, rating of assessment [4]: D or higher
O=C(Nc1ccc(Oc2ccccc2)cc1)C1=C(O)CC(c2ccc(C(F)(F)F)cc2)C2(CCCCC2)C1=O (stereo not drawn) [1-38]	D or higher	–
O=C(Nc1ccc(F)cc1)C1=C(O)CC(c2ccc(C(F)(F)F)cc2)C2(CCOCC2)C1=O (stereo not drawn) [1-45]	D or higher	–
O=C1C(C(=S)Nc2ccc(F)cc2)=C(O)CC(c2ccc(C(F)(F)F)cc2)C12CCCC2 (stereo not drawn) [1-48]	D or higher	–
O=C(Nc1ccc([N+](=O)[O-])cc1)C1=C(O)CC(c2ccc(C(F)(F)F)cc2)C2(CCCCC2)C1=O (stereo not drawn) [1-118]	D or higher	–
O=C(Nc1ccccc1-c1ccccc1)C1=C(O)CC(c2ccc(C(F)(F)F)cc2)C2(CCCCC2)C1=O (stereo not drawn) [1-119]	D or higher	–
O=C(Nc1ccc(SC(F)(F)F)cc1)C1=C(O)CC(c2ccc(C(F)(F)F)cc2)C2(CCCCC2)C1=O (stereo not drawn) [1-120]	D or higher	–
O=C(Nc1ccc(OC(F)(F)F)cc1)C1=C(O)CC(c2ccc(C(F)(F)F)cc2)C2(CCCCC2)C1=O (stereo not drawn) [1-122]	D or higher	–
Cl.O=C(Nc1ccc(F)cc1)C1=C(O)CC(c2ccc(C(F)(F)F)cc2)C2(CCNCC2)C1=O (stereo not drawn) [1-136]	D or higher	–
CC1(C)C(=O)C(C(=O)Nc2ccc(F)cn2)=C(O)CC1c1ccc(Br)cn1 (stereo not drawn) [1-142]	D or higher	–
CC1(C)C(=O)C(C(=O)Nc2ccc(F)nc2)=C(O)CC1c1ccc(Br)cn1 (stereo not drawn) [1-143]	D or higher	–
O=C1CC2c3cc(C(F)(F)F)ccc3CC2C(O)=C1C(=O)Nc1ccc(F)cc1 (stereo not drawn) [2-1]	D or higher	–
O=C1CC2c3ccc(C(F)(F)F)cc3CCC2C(O)=C1C(=O)Nc1ccc(F)cc1 (stereo not drawn) [2-2]	D or higher	–
CC1C(=O)C(C(=O)Nc2ccc(F)cc2)=C(O)C2CCc3cc(C(F)(F)F)ccc3C12 (stereo not drawn) [2-4]	D or higher	–
CC1C(=O)C(C(=S)Nc2ccc(F)cc2)=C(O)C2CCc3cc(C(F)(F)F)ccc3C12 (stereo not drawn) [2-9]	D or higher	–
